Reference: patent US11878973B2, “Bicyclic compounds and their uses” (NOVARTIS AG, priority 2021, dated 2024)

Key:
[1] = target: WRN helicase (Homo sapiens (Human), UniProt Q14191); experiment: In vitro enzymatic activity assay on WRN helicase (DNA dependent ATPase assay, ADP-Glo); assay type: biochemical; conditions: geometric means of at least 2 determinations; read-out: WRN ATPase Activity (IC50)
Source text: An ATPase assay was set up to measure the DNA dependent ATP hydrolysis activity of WRN helicase. This assay was used also to assess the inhibition properties of compounds of the invention on DNA dependent WRN ATPase activity.
The core helicase motif of the WRN protein (aa N517-P1238) was produced for this assay (protein production as described above). […] The ADP-Glo assay kit (Promega, Madison, WI) allowing the quantification of ADP produced in ATP hydrolysis reactions was used for setting up this assay.
Time course experiments were first performed in order to determine the best enzymatic assay conditions (including buffer conditions, reaction time and concentrations of protein, ATP and DNA substrates). A typical reaction consists of 10 nM WRN protein, 0.2 nM FLAP26, and 300 micromolar ATP in the following assay buffer: 30 mM Tris pH7.5, 2 mM MgCl2, 0.02% BSA, 50 mM NaCl, 0.1% pluronic F127 prepared in DNAse free water. To evaluate the inhibition properties of compounds of the invention, serial dilutions were prepared in DMSO (10 half log dilutions from a 10 mM DMSO solution). […] The reaction was started by addition of 2.5 microliters of FLAP26 at 0.4 nM and incubated for 30 minutes at room temperature. The reaction was stopped with the addition of 5 microliters of the first ADP-Glo reagent and incubated for one hour to remove the excess amount of ATP. Afterwards, 10 microliters of ATP detection reagent was added and incubated for an additional hour before reading. Luminescence output was recorded using Tecan 1000 reader, with 5 minutes delay before reading. Each concentration of compound was tested in duplicates in the assay plate.
Following normalization of activity values for the wells to % inhibition (% inhibition=[(high control-sample)/(high control-low control)]×100), IC50 fitting was carried out from the duplicate determinations present on each plate according to [4]. Data analysis can also be carried out using commercially available software designed to derive IC50 values using 4-parameter fits (e.g. GraphPad Prism, XL fit). The reported IC50 values are the geometrical means of at least 2 independent replicates.

[2] = system: SW48 cells; experiment: Proliferation assay SW48 (CellTiterGlo, 96 hours); conditions: Homo sapiens, SW48, read-out: Proliferation Assay SW48 (GI50)
Protocol: The WRN-knockdown insensitive colon carcinoma cell line DLD-1 (RRID: CVCL_0248) was obtained from the Korean Cell Line Bank (KCLB), and used to generate a derivative in which the endogenous WRN gene copies were knocked out by CRISPR-mediated editing using standard CRISPR methods. The resulting cell line, DLD1-WRN—KO, was used to assess potential off-target compound effects.
All cells were maintained at 37° C. in a humidified 5% CO2 incubator.
For data analysis, the assay background signal that was determined in wells containing medium, but no cells, was subtracted from all other data points prior to further calculations. The extent of growth inhibition and potential cell kill was assessed by comparing the ATP levels (measured using CellTiterGlo, Promega) in compound-treated cells with those present at the time of compound addition. […] 100%, 0% and −100% signify absence of growth inhibition, growth stasis, and complete cell kill, respectively. Compound concentrations leading to half-maximal growth inhibition (G150) and residual cell viability at the highest tested compound concentration (Data (cmax), expressed in percent) were routinely calculated. Data analysis can also be carried out using commercially available software designed to derive IC50 values using 4-parameter fits (e.g. GraphPad Prism, XL fit). The reported GI50 values are the geometrical means of at least 2 independent replicates.

[3] = system: DLD1-WRN-KO cells; experiment: Proliferation assay DLD1-WRN-KO (CellTiterGlo, 96 hours; off-target effects); conditions: Homo sapiens, read-out: Proliferation Assay DLD1-WRN-KO (GI50)

WRN helicase, sequence (Q14191 517-1238): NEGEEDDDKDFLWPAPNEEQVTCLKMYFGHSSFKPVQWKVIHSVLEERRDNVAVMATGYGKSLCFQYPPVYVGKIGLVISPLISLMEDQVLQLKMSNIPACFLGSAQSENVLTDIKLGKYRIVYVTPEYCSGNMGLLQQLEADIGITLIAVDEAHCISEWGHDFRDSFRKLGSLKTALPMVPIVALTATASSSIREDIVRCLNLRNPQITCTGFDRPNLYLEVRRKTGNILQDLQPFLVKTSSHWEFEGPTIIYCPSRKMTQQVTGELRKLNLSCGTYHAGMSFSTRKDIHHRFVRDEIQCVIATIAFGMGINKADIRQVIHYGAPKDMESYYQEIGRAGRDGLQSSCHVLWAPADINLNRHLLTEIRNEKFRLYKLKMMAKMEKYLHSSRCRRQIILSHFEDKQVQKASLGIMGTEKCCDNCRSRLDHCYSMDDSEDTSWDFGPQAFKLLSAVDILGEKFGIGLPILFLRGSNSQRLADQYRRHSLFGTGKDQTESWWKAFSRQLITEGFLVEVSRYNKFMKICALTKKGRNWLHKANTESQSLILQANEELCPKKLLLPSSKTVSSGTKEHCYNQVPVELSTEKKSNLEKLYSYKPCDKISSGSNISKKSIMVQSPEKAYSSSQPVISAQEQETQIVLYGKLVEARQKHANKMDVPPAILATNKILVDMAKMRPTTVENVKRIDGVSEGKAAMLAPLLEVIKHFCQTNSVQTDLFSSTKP

CCc1c(N2CCN(C(=O)c3ncccc3O)CC2)c(=O)n2nc(N3CCOCC3)nc2n1CC(=O)Nc1ccc(C(F)(F)F)cc1C [Example 8, 2-(5-ethyl-6-(4-(3-hydroxypicolinoyl)piperazin-1-yl)-2-morpholino-7-oxo-[1,2,4]triazolo[1,5-a]pyrimidin-4(7H)-yl)-N-(2-methyl-4-(trifluoromethyl)phenyl)acetamide]
IC50 [1]: 0.08 µM
GI50 [2]: 0.21 µM
GI50 [3]: > 10 µM

CCc1c(N2CCN(C(=O)c3nccc(Cl)c3O)CC2)c(=O)n2nc(N3CCOCC3)nc2n1CC(=O)Nc1ccc(C(F)(F)F)cc1C [Example 9, 2-(6-(4-(4-chloro-3-hydroxypicolinoyl)piperazin-1-yl)-5-ethyl-2-morpholino-7-oxo-[1,2,4]triazolo[1,5-a]pyrimidin-4(7H)-yl)-N-(2-methyl-4-(trifluoromethyl)phenyl)acetamide]
IC50 [1]: 0.06 µM
GI50 [2]: 0.35 µM
GI50 [3]: > 10 µM

CCc1c(N2CCN(C(=O)c3ncccc3O)CC2)c(=O)n2nc(N3CCCC(F)C3)nc2n1CC(=O)Nc1cc(Cl)c(C(F)(F)F)cc1C (racemic) [Example 13, rac-N-(5-chloro-2-methyl-4-(trifluoromethyl)phenyl)-2-(5-ethyl-2-(3-fluoropiperidin-1-yl)-6-(4-(3-hydroxypicolinoyl)piperazin-1-yl)-7-oxo-[1,2,4]triazolo[1,5-a]pyrimidin-4(7H)-yl)acetamide]
IC50 [1]: 0.03 µM
GI50 [2]: 0.16 µM
GI50 [3]: 5.2 µM

CCc1c(N2CCN(C(=O)c3ncccc3O)CC2)c(=O)n2nc(N3CCCC3)nc2n1CC(=O)Nc1ccc(C(F)(F)F)cc1C [Example 17, 2-(5-ethyl-6-(4-(3-hydroxypicolinoyl)piperazin-1-yl)-7-oxo-2-(pyrrolidin-1-yl)-[1,2,4]triazolo[1,5-a]pyrimidin-4(7H)-yl)-N-(2-methyl-4-(trifluoromethyl)phenyl)acetamide]
IC50 [1]: 0.14 µM
GI50 [2]: 0.24 µM
GI50 [3]: > 10 µM

CCc1c(N2CCN(C(=O)c3nccc(OC(F)(F)F)c3O)CC2)c(=O)n2nc(C3=CCOCC3)nc2n1CC(=O)Nc1ccc(C(F)(F)F)cc1C [Example 67, 2-(2-(3,6-dihydro-2H-pyran-4-yl)-5-ethyl-6-(4-(3-hydroxy-4-(trifluoromethoxy)picolinoyl)piperazin-1-yl)-7-oxo-[1,2,4]triazolo[1,5-a]pyrimidin-4(7H)-yl)-N-(2-methyl-4-(trifluoromethyl)phenyl)acetamide]
IC50 [1]: 0.15 µM
GI50 [2]: 0.19 µM
GI50 [3]: > 10 µM

CCc1c(N2CCN(C(=O)c3ncccc3O)CC2)c(=O)n2nc(N3C[C@@H](F)[C@@H](F)C3)nc2n1CC(=O)Nc1ccc(C(F)(F)F)cc1C [Example 23, 2-(2-((3R,4S)-3,4-difluoropyrrolidin-1-yl)-5-ethyl-6-(4-(3-hydroxypicolinoyl)piperazin-1-yl)-7-oxo-[1,2,4]triazolo[1,5-a]pyrimidin-4(7H)-yl)-N-(2-methyl-4-(trifluoromethyl)phenyl)acetamide]
IC50 [1]: 0.26 µM
GI50 [2]: 1.54 µM
GI50 [3]: > 10 µM

CCc1c(N2CCN(C(=O)c3nc(C)cc(F)c3O)CC2)c(=O)n2nc(C3=CCOCC3)nc2n1CC(=O)Nc1ccc(C(F)(F)F)cc1Cl [Example 41, N-(2-chloro-4-(trifluoromethyl)phenyl)-2-(2-(3,6-dihydro-2H-pyran-4-yl)-5-ethyl-6-(4-(4-fluoro-3-hydroxy-6-methylpicolinoyl)piperazin-1-yl)-7-oxo-[1,2,4]triazolo[1,5-a]pyrimidin-4(7H)-yl)acetamide]
IC50 [1]: 0.04 µM
GI50 [2]: 0.04 µM
GI50 [3]: > 10 µM

CCc1c(N2CCN(C(=O)c3ncccc3O)CC2)c(=O)n2nc(-c3cccnc3)nc2n1CC(=O)Nc1ccc(C(F)(F)F)cc1C [Example 76, 2-(5-ethyl-6-(4-(3-hydroxypicolinoyl)piperazin-1-yl)-7-oxo-2-(pyridin-3-yl)-[1,2,4]triazolo[1,5-a]pyrimidin-4(7H)-yl)-N-(2-methyl-4-(trifluoromethyl)phenyl)acetamide]
IC50 [1]: 0.08 µM
GI50 [2]: 0.19 µM
GI50 [3]: > 10 µM

CCc1c(N2CCN(C(=O)c3ncccc3O)CC2)c(=O)n2nc(C3=CCC(OC)CC3)nc2n1CC(=O)Nc1ccc(C(F)(F)F)cc1C (racemic) [Example 80, rac-2-(5-ethyl-6-(4-(3-hydroxypicolinoyl)piperazin-1-yl)-2-(4-methoxycyclohex-1-en-1-yl)-7-oxo-[1,2,4]triazolo[1,5-a]pyrimidin-4(7H)-yl)-N-(2-methyl-4-(trifluoromethyl)phenyl)acetamide]
IC50 [1]: 0.06 µM
GI50 [2]: 0.07 µM
GI50 [3]: > 10 µM

CCc1c(N2CCN(C(=O)c3ncnc(C)c3O)CC2)c(=O)n2nc(C3=CCOCC3)nc2n1CC(=O)Nc1ccc(C(F)(F)F)cc1 [Example 73, 2-(2-(3,6-dihydro-2H-pyran-4-yl)-5-ethyl-6-(4-(5-hydroxy-6-methylpyrimidine-4-carbonyl)piperazin-1-yl)-7-oxo-[1,2,4]triazolo[1,5-a]pyrimidin-4(7H)-yl)-N-(4-(trifluoromethyl)phenyl)acetamide]
IC50 [1]: 0.07 µM
GI50 [2]: 0.2 µM
GI50 [3]: > 10 µM

CCc1c(N2CCN(C(=O)c3ncccc3O)CC2)c(=O)n2nc(N3CC4CC(C3)O4)nc2n1CC(=O)Nc1ccc(C(F)(F)F)cc1C [Example 21, 2-(2-(6-oxa-3-azabicyclo[3.1.1]heptan-3-yl)-5-ethyl-6-(4-(3-hydroxypicolinoyl)piperazin-1-yl)-7-oxo-[1,2,4]triazolo[1,5-a]pyrimidin-4(7H)-yl)-N-(2-methyl-4-(trifluoromethyl)phenyl)acetamide]
IC50 [1]: 0.18 µM
GI50 [2]: 1.07 µM
GI50 [3]: > 10 µM

CCc1c(N2CCN(C(=O)c3nccc(Cl)c3O)CC2)c(=O)n2nc(C3=CCCCO3)nc2n1CC(=O)Nc1ccc(C(F)(F)F)nc1C [Example 56, 2-(6-(4-(4-chloro-3-hydroxypicolinoyl)piperazin-1-yl)-2-(3,4-dihydro-2H-pyran-6-yl)-5-ethyl-7-oxo-[1,2,4]triazolo[1,5-a]pyrimidin-4(7H)-yl)-N-(2-methyl-6-(trifluoromethyl)pyridin-3-yl)acetamide]
IC50 [1]: 0.16 µM
GI50 [2]: 0.25 µM
GI50 [3]: > 10 µM

CCc1c(N2CCN(C(=O)c3ncccc3O)CC2)c(=O)n2nc(C3=CCCCO3)nc2n1CC(=O)Nc1ccc(C(F)(F)F)cc1Cl [Example 32, N-(2-chloro-4-(trifluoromethyl)phenyl)-2-(2-(3,4-dihydro-2H-pyran-6-yl)-5-ethyl-6-(4-(3-hydroxypicolinoyl)piperazin-1-yl)-7-oxo-[1,2,4]triazolo[1,5-a]pyrimidin-4(7H)-yl)acetamide]
IC50 [1]: 0.06 µM
GI50 [2]: 0.06 µM
GI50 [3]: 7.6 µM

CCc1c(N2CCN(C(=O)c3ncccc3O)CC2)c(=O)n2nc(N3CCOCC3)nc2n1CC(=O)Nc1ccc(C(F)(F)F)cc1F [Example 11, 2-(5-ethyl-6-(4-(3-hydroxypicolinoyl)piperazin-1-yl)-2-morpholino-7-oxo-[1,2,4]triazolo[1,5-a]pyrimidin-4(7H)-yl)-N-(2-fluoro-4-(trifluoromethyl)phenyl)acetamide]
IC50 [1]: 0.11 µM
GI50 [2]: 0.38 µM
GI50 [3]: > 10 µM
